Test results: paper PMC8370991, “Structural basis for the inhibition of HTLV-1 integration inferred from cryo-EM deltaretroviral intasome structures” (Nature Communications, 2021)
Like-named read-outs stand apart in the source and are kept apart here.

What was measured:
[1] = biological target: T1, recombinant HTLV-1 IN (Human T-cell leukemia virus 1, UniProt P03362); test: In vitro integration strand transfer assay with HTLV-1 IN; format: biochemical; conditions: for HTLV-1 IN strand transfer activity (No drug = 100): INSTI at 634 nM
T1 construct: made in house
Method: We used in vitro strand transfer assays to screen this small molecule library for its ability to inhibit recombinant HTLV-1 IN. The enzyme was incubated with an oligonucleotide vDNA donor mimic in the presence or absence of INSTIs and was allowed to react with a supercoiled plasmid mimicking target DNA. During the screening, the concentration of each compound was adjusted to 634 nM to provide optimal resolution of efficacy between well- and under-performing compounds.
The donor vDNA that mimics the 3′-processed LTR of HTLV-1 or STLV-1 DNA was preassembled by annealing the U5_S20Q_UP and U5_S20Q_B or MarB43_U5_S30UP or MarB43_U5_S30B oligonucleotides, respectively (Supplementary Table 4) in 100 mM Tris pH 7.4, 400 mM NaCl. For HTLV-1 IN, strand transfer reactions were conducted in a solution of 24.3 mM PIPES pH 6.0, 138.4 mM NaCl, 16.6 mM MgCl2, 5.8 μM ZnCl2, 12.7 mM DTT, 0.53 μM donor DNA and 4 μg of HTLV-1 IN[9],[39]. In brief, the reaction was incubated at RT for 15 min in the presence of an INSTI or dimethyl sulfoxide (DMSO) control and the reaction was started by the addition of 300 ng of pGEM-9Zf(-) supercoiled plasmid DNA. The reaction was incubated for 1 h at 37 °C and stopped by adding 0.5% SDS and 25 mM ethylenediaminetetraacetic acid (EDTA), pH 8.0.
Proteins were degraded by incubation with 30 μg of proteinase K (Roche) at 37 °C for 1 h. DNA was precipitated at −20 °C overnight in the presence of ethanol supplemented with 20 μg of glycogen and then resuspended in 1.5× agarose loading dye. The DNA products were separated by electrophoresis through 1.5% agarose gel and stained with ethidium bromide and imaged using the BioRad GelDox XR + imager. The data were analysed and the IC50 calculated as previously described. In brief, the DNA band that corresponds to the concerted integration product was quantified by densitometry in ImageLab 4.1 (Bio-Rad). All experiments were done in triplicate. Quantified data points were fitted to dose–response curves in Prism 9. The cumulative standard deviation for each drug was calculated as an average of the upper limit and lower limit values: Lowerlimit=IC50/10^logSE(IC50) Upperlimit=IC50×10^logSE(IC50)

[2] = tested on: HIV-1; conditions: HIV-1 infection model, read-out: HIV-1 EC50 ± stdev, cited from earlier work
[3] = tested on: HTLV-1; test: Alu-qPCR of integrated provirus in HTLV-1 infected Jurkat cells; format: cell-based; conditions: normalized to GAPDH
Method: The HTLV-1 cell-to-cell infection was performed as previously described; Jurkat T cells were counted and diluted in complete RPMI to a final concentration of 0.25 × 10^6 cells/ml and pre-treated with INSTI drugs (final concentration ranging from 0.2 pM to 2 μM) or DMSO as a control for 24 h. MT-2 cells were resuspended in RPMI at a concentration of 2 × 10^6 cells/ml and subjected to a nonlethal γ-radiation dose of 400 Gy. Cells were resuspended at a concentration of 2 × 10^6 cells/ml in serum-free RPMI supplemented with the corresponding INSTI drug. Co-culture of 0.5 × 10^6 for each cell line was carried out for 16 h, after which cells were washed in PBS and resuspended in 1 ml of depletion buffer (PBS, 0.1% FBS and 2 mM EGTA). MT-2 cells were depleted from the culture by means of anti-CD25 magnetic beads (DynabeadsTM CD25, Thermo Fisher). Depletion efficiency was confirmed via flow cytometry as described previously. Jurkat cells were cultured for 2 weeks in complete RPMI supplemented with the drugs and genomic DNA was extracted (DNeasy kit, Qiagen) and stored at −20 °C for subsequent analysis. All the experiments were done in triplicate.
The PVL was measured as previously described[9],[53],[54]. Jurkat genomic DNA was quantified and diluted to a concentration of 5 ng/μL. Real-time qPCR analysis were conducted on 20 ng of gDNA to measure the level of HTLV-1 tax and gapdh genes (Supplementary Table 5). For the standard curve, the gDNA from an HTLV-1 naturally infected T-cell clone (clone 11.50, courtesy of professor Charles Bangham), which has one copy of tax and two of gapdh, was used. The integrated provirus copy number was calculated as follows: (tax copy numbers)/(2×gapdh copy number)[53], and normalised to the DMSO-treated control which was set to 100%. The PVL data were fitted to a dose–response curve in Prism 7 and the EC50 was calculated. Alu-PCR was performed as previously described in ref. [55]. In brief, the first PCR reaction was done with Phusion polymerase starting from 80 ng of gDNA using the ALU-specific primers (Alu-F/Gag-R). The nested PCR was run diluting the amplificated product 1:50. The reaction was done as a qPCR using Gag-specific primers (Gag-R/Gag-F) and the Luna SYBR dye reaction mix (New England Biolabs). The integrated provirus copy numbers were normalised to GAPDH and Jurkat cells treated with DMSO and infected with HTLV-1 were set to 100%. Experiments were done in triplicate. […]
Supplementary Figure 6 | Integrated provirus was quantified by Alu-qPCR.
Values were normalized to GAPDH. Uninfected represents uninfected Jurkat cells, acting as negative control. Condition without any drug present (DMSO) was set as 100%. Mean values and standard deviations are shown for n = three biologically independent experiments. P-values were calculated with respect to the DMSO control using the unpaired t-test with Welch’s correction in Prism 9. P-values are two-sided.

[4] = Replicate 1, read-out: HTLV-1 IN strand transfer IC50
[5] = Replicate 2, read-out: HTLV-1 IN strand transfer IC50
[6] = Replicate 3, read-out: HTLV-1 IN strand transfer IC50
[7] = integrase strand-transfer drug titration, n = 3, read-out: HTLV-1 IC50 ± stdev

T1 sequence (P03362 1168-1462): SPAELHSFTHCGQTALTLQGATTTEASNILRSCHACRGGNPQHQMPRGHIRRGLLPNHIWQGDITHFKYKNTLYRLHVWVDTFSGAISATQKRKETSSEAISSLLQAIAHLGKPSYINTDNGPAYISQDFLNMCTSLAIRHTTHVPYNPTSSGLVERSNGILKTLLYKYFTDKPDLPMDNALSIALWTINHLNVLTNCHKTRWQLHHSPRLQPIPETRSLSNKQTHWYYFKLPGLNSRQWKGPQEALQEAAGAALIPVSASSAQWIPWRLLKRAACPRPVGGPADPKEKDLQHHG

Compound	HTLV-1 IN strand transfer activity (No drug = 100) ([1]; Replicate 1)	HTLV-1 IN strand transfer activity (No drug = 100) ([1]; Replicate 2)	HTLV-1 IN strand transfer activity (No drug = 100) ([1]; Replicate 3)	IC50 [1, 4]	IC50 [1, 5]	IC50 [1, 6]	IC50 [1, 7]	EC50 ([2]; supplementary ref 1)	Integrated provirus by Alu-qPCR (DMSO = 100%) ([3]; Replicate 1)	Integrated provirus by Alu-qPCR (DMSO = 100%) ([3]; Replicate 2)	Integrated provirus by Alu-qPCR (DMSO = 100%) ([3]; Replicate 3)	EC50 ([2]; supplementary ref 14)	IC50 compared with that of RAL ([1]; dose-response strand transfer assays)	inhibition of HTLV-1 IN in the screen compared with RAL ([1]; each compound at 634 nM)
Nc1c(C(=O)NCc2ccc(F)cc2F)c(=O)n(O)c2ncc(CCCCCCO)cc12 [XZ426, 4-amino-N-(2,4-difluorobenzyl)-1-hydroxy-6-(6-hydroxyhexyl)-2-oxo-1,2-dihydro-1,8-naphthyridine-3-carboxamide]	14.449%	19.5833%	19.9322%	159 nM	169 nM	175 nM	163 ± 27.9 nM	2.3 ± 0.6 nM						
COC(=O)CCc1cnc2c(c1)c(N)c(C(=O)NCc1ccc(F)cc1F)c(=O)n2O [XZ434, methyl 3-(5-amino-6-((2,4-difluorobenzyl)carbamoyl)-8-hydroxy-7-oxo-7,8-dihydro-1,8-naphthyridin-3-yl)propanoate]	20.5794%	19.7322%	15.311%	174 nM	217 nM	231 nM	204 ± 34.1 nM		0.3355%	0.8375%	1.324e-5%	0.67 ± 0.15 nM		
Nc1c(C(=O)NCc2ccc(F)cc2F)c(=O)n(O)c2ncccc12 [XZ384, 4-amino-N-(2,4-difluorobenzyl)-1-hydroxy-2-oxo-1,2-dihydro-1,8-naphthyridine-3-carboxamide]	12.8154%	24.1903%	23.5902%	142 nM	268 nM	121 nM	210 ± 34 nM	1.1 ± 0.7 nM	4.1902%	0.144%	1.628%			
CC(C)NC(=O)/C=C/c1cnc2c(c1)c(N)c(C(=O)NCc1ccc(F)cc1F)c(=O)n2O [XZ452, (E)-4-amino-N-(2,4-difluorobenzyl)-1-hydroxy-6-(3-(isopropylamino)-3-oxoprop-1-en-1-yl)-2-oxo-1,2-dihydro-1,8-naphthyridine-3-carboxamide]	11.3751%	23.2017%	17.2877%	174 nM	162 nM	229 nM	182 ± 44.7 nM							
Nc1c(C(=O)NCc2ccc(F)cc2F)c(=O)n(O)c2ncc(CCCCCO)cc12 [XZ419, 4-amino-N-(2,4-difluorobenzyl)-1-hydroxy-6-(5-hydroxypentyl)-2-oxo-1,2-dihydro-1,8-naphthyridine-3-carboxamide]	14.8861%	26.7311%	21.3921%	173 nM	249 nM	269 nM	226 ± 21 nM	1.3 ± 0.2 nM						
O=C(NCc1ccc(F)cc1F)c1c(NCCO)c2cccnc2n(O)c1=O [XZ378, N-(2,4-difluorobenzyl)-1-hydroxy-4-((2-hydroxyethyl)amino)-2-oxo-1,2-dihydro-1,8-naphthyridine-3-carboxamide]	14.3053%	44.0798%	36.7031%	311 nM	474 nM	392 nM	397 ± 64 nM						no significant improvement over RAL	outperformed RAL
